{"source": "PubChem BioAssay AID248", "about": "(DTP/NCI, 2004)", "test_system": "L1210 leukemia ip in BDF1 mice, survival T/C", "assay": "NCI In Vivo Anticancer Drug Screen. Data for tumor model L1210 Leukemia (intraperitoneal) in B6D2F1 (BDF1) mice", "settings": "endpoint: mean survival time, higher = longer survival", "how_it_was_run": "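Tumor was transplanted into mice, which were then dosed with test compound or vehicle alone. Survival was recorded for each group, and the treated figure was expressed relative to the control figure.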", "key": {"[1]": {"settings": "dose: 100.0 mg/kg/injection, schedule: Q01DX009 (ip), vehicle: saline with Tween-80"}, "[2]": {"settings": "dose: 200.0 mg/kg/injection, schedule: Q01DX009 (ip), vehicle: saline with Tween-80"}, "[3]": {"settings": "dose: 400.0 mg/kg/injection, schedule: Q04DX003 (ip), vehicle: saline with Tween-80"}}, "note": "Toxic doses and inconclusive results are not listed.", "data": [{"smiles": "Cc1ccc(S(=O)(=O)N/N=C/C(=O)O)cc1", "values": [{"measurement": "T/C", "setting": "dose: 10.0 mg/kg/injection, schedule: Q01DX009 (ip), vehicle: other", "result": "116 % of control"}, {"measurement": "T/C", "setting": "dose: 15.0 mg/kg/injection, schedule: Q01DX009 (ip), vehicle: other", "result": "118 % of control"}, {"measurement": "T/C", "setting": "dose: 27.0 mg/kg/injection, schedule: Q01DX009 (ip), vehicle: saline", "result": "158 % of control"}, {"measurement": "T/C", "setting": "dose: 33.0 mg/kg/injection, schedule: Q01DX009 (ip), vehicle: other", "result": "166 % of control"}, {"measurement": "T/C", "setting": "dose: 40.0 mg/kg/injection, schedule: Q01DX009 (ip), vehicle: saline", "result": "153 % of control"}, {"measurement": "T/C", "setting": "dose: 50.0 mg/kg/injection, schedule: Q01DX009 (ip), vehicle: water", "result": "108 % of control"}, {"measurement": "T/C", "setting": "dose: 75.0 mg/kg/injection, schedule: Q01DX001 (ip), vehicle: saline", "result": "119 % of control"}, {"measurement": "T/C", "setting": "dose: 90.0 mg/kg/injection, schedule: Q01DX009 (ip), vehicle: saline", "result": "164 % of control"}, {"measurement": "T/C", "setting": "[1]", "result": "120 % of control"}, {"measurement": "T/C", "setting": "dose: 100.0 mg/kg/injection, schedule: Q01DX009 (ip), vehicle: water", "result": "92 % of control"}, {"measurement": "T/C", "setting": "dose: 112.0 mg/kg/injection, schedule: Q01DX009 (ip), vehicle: other", "result": "97 % of control"}, {"measurement": "T/C", "setting": "dose: 144.0 mg/kg/injection, schedule: Q04DX003 (ip), vehicle: saline with Tween-80", "result": "97 % of control"}, {"measurement": "T/C", "setting": "dose: 150.0 mg/kg/injection, schedule: Q01DX009 (ip), vehicle: saline with Tween-80", "result": "116 % of control"}, {"measurement": "T/C", "setting": "[2]", "result": "112 % of control"}, {"measurement": "T/C", "setting": "dose: 240.0 mg/kg/injection, schedule: Q04DX003 (ip), vehicle: saline with Tween-80", "result": "107 % of control"}, {"measurement": "T/C", "setting": "[3]", "result": "108 % of control"}, {"measurement": "T/C", "setting": "dose: 500.0 mg/kg/injection, schedule: Q01DX009 (ip), vehicle: saline with Tween-80", "result": "117 % of control"}]}, {"smiles": "CCOC(=O)c1cc(C)nnc1C(=O)OCC", "values": [{"measurement": "T/C", "setting": "[1]", "result": "104 % of control"}, {"measurement": "T/C", "setting": "dose: 100.0 mg/kg/injection, schedule: Q01DX009 (ip), vehicle: saline", "result": "100 % of control"}, {"measurement": "T/C", "setting": "dose: 100.0 mg/kg/injection, schedule: Q04DX003 (ip), vehicle: saline with Tween-80", "result": "97 % of control"}, {"measurement": "T/C", "setting": "dose: 100.0 mg/kg/injection, schedule: Q04DX003 (ip), vehicle: saline", "result": "107 % of control"}, {"measurement": "T/C", "setting": "[2]", "result": "104 % of control"}, {"measurement": "T/C", "setting": "dose: 200.0 mg/kg/injection, schedule: Q01DX009 (ip), vehicle: saline", "result": "103 % of control"}, {"measurement": "T/C", "setting": "dose: 200.0 mg/kg/injection, schedule: Q04DX003 (ip), vehicle: saline with Tween-80", "result": "106 % of control"}, {"measurement": "T/C", "setting": "dose: 200.0 mg/kg/injection, schedule: Q04DX003 (ip), vehicle: saline", "result": "112 % of control"}, {"measurement": "T/C", "setting": "dose: 400.0 mg/kg/injection, schedule: Q01DX009 (ip), vehicle: saline with Tween-80", "result": "103 % of control"}, {"measurement": "T/C", "setting": "dose: 400.0 mg/kg/injection, schedule: Q01DX009 (ip), vehicle: saline", "result": "101 % of control"}, {"measurement": "T/C", "setting": "[3]", "result": "101 % of control"}, {"measurement": "T/C", "setting": "dose: 400.0 mg/kg/injection, schedule: Q04DX003 (ip), vehicle: saline", "result": "98 % of control"}]}, {"smiles": "COC1=CCC23C(=O)C=CC(=O)C2(C1)C(=O)c1ccccc1C3=O", "note": "(stereo not drawn)", "values": [{"measurement": "T/C", "setting": "dose: 3.12 mg/kg/injection, schedule: Q01DX005 (ip), vehicle: saline with Tween-80", "result": "110 % of control"}, {"measurement": "T/C", "setting": "dose: 6.25 mg/kg/injection, schedule: Q01DX005 (ip), vehicle: saline with Tween-80", "result": "103 % of control"}, {"measurement": "T/C", "setting": "dose: 12.5 mg/kg/injection, schedule: Q01DX005 (ip), vehicle: saline with Tween-80", "result": "97 % of control"}]}, {"smiles": "[Cl][Sb]([c]1ccccc1)([c]1ccccc1)([c]1ccccc1)[c]1ccccc1", "values": [{"measurement": "T/C", "setting": "dose: 2.4 mg/kg/injection, schedule: Q01DX009 (ip), vehicle: saline", "result": "101 % of control"}, {"measurement": "T/C", "setting": "dose: 4.7 mg/kg/injection, schedule: Q01DX009 (ip), vehicle: saline", "result": "94 % of control"}, {"measurement": "T/C", "setting": "dose: 9.4 mg/kg/injection, schedule: Q01DX009 (ip), vehicle: saline", "result": "91 % of control"}]}, {"smiles": "CN(CCO)C(c1ccccc1)c1ccccc1", "values": [{"measurement": "T/C", "setting": "dose: 100.0 mg/kg/injection, schedule: Q01DX001 (ip), vehicle: saline", "result": "100 % of control"}, {"measurement": "T/C", "setting": "dose: 200.0 mg/kg/injection, schedule: Q01DX001 (ip), vehicle: saline", "result": "94 % of control"}, {"measurement": "T/C", "setting": "dose: 400.0 mg/kg/injection, schedule: Q01DX001 (ip), vehicle: saline", "result": "103 % of control"}]}, {"smiles": "CC1(C)CCC(NC(=O)N(CCF)N=O)CC1", "values": [{"measurement": "T/C", "setting": "dose: 9.0 mg/kg/injection, schedule: Q01DX001 (ip), vehicle: other", "result": "115 % of control"}, {"measurement": "T/C", "setting": "dose: 13.0 mg/kg/injection, schedule: Q01DX001 (ip), vehicle: other", "result": "122 % of control"}, {"measurement": "T/C", "setting": "dose: 37.0 mg/kg/injection, schedule: Q01DX001 (ip), vehicle: other", "result": "188 % of control"}, {"measurement": "T/C", "setting": "dose: 50.0 mg/kg/injection, schedule: Q01DX001 (ip), vehicle: other", "result": "352 % of control"}, {"measurement": "T/C", "setting": "dose: 75.0 mg/kg/injection, schedule: Q01DX001 (ip), vehicle: other", "result": "352 % of control"}]}]}
